Reference: PMC10671715, “Self-Entrapment of Antimicrobial Peptides in Silica Particles for Stable and Effective Antimicrobial Peptide Delivery System” (International Journal of Molecular Sciences, 2023)
Like-named read-outs stand apart in the source and are kept apart here. Marks after values point to notes of the source that are not given here.

Assays:
[1] = test system: S. aureus (after trypsin treatment of AMP); experiment: Residual antibacterial activity after trypsin treatment; details: 300 μM in 1× PBS, 0.025% trypsin, 37 °C, 3 min, stopped with FBS; overnight culture, OD600; N = 3
Method: (§1) The absorbance value of the bacteria in the absence of AMP was used as the negative control. The absorbance value of the bacteria grown in the presence of trypsinized AMP was subtracted from that of the negative control, and the resulting difference was expressed as a percentage fraction of the negative control, yielding the residual antibacterial activity of AMP after trypsin treatment (Figure 6a).
(§2) Free AMP or AMP@Si was dissolved in 1 × PBS at a concentration of 300 μM and left at 37 °C for 3 min in the presence of 0.025% trypsin, followed by the addition of fetal bovine serum (FBS) to stop the activity of trypsin. Bacteria were incubated overnight with each trypsinized peptide formula, and broth absorbance was measured at 600 nm. As a negative control, the absorbance of the strain grown in the absence of the peptide was set. To determine the remaining antimicrobial activity of AMP after treatment of trypsin, the absorbance of the sample treated with AMP was subtracted from the absorbance of the negative control. The resulting difference was then expressed as a percentage of the absorbance of the negative control.
(§3) (a) The residual antibacterial activity was calculated by taking the difference in optical density at 600 nm between the negative control and the sample containing the trypsinized AMP. It was then divided by the optical density of the negative control and multiplied by 100. Each bacterial solution grown in a medium without AMP is used as a corresponding negative control. […] The image is a 10,000× magnification, the inside image is a 20,000× magnification, and the scale bar represents 1 µm.

[2] = test system: E. coli (after trypsin treatment of AMP); experiment: as above; details: 300 μM in 1× PBS, 0.025% trypsin, 37 °C, 3 min, stopped with FBS; overnight culture, OD600; N = 3
Method: as §1, §2, §3

[3] = test system: P. aeruginosa (after trypsin treatment of AMP); experiment: as above; details: 300 μM in 1× PBS, 0.025% trypsin, 37 °C, 3 min, stopped with FBS; overnight culture, OD600; N = 3
Method: as §1, §2, §3

S. aureus [4] = format: cell-based, Staphylococcus aureus (ATCC 29213); details: 18 h
Method: (§4) Two Gram-negative bacterial strains, namely Escherichia coli (wild type W2110) and Pseudomonas aeruginosa (wild type PK01) and Gram-positive strain, […] (ATCC 29213) were obtained from the Department of Biotechnology and Bioinformatics at Korea University.
(§5) The broth microdilution assay was used to test the antimicrobial activity of AMPs, as previously reported. Briefly, bacteria were grown to mid-logarithmic growth phase in Mueller Hinton Broth (MHB) media at 37 °C. Then, in 96-well plates, 50 µL of peptide solution (0–320 µM) diluted using a 2-fold serial dilution method was mixed with an equal volume of bacterial solution (3 × 10^6 CFU/mL) and incubated for 18 h at 37 °C with shaking at 200 rpm. The negative control was the culture medium itself. […] The assay was performed in triplicate.

Raw264.7 cells = experiment: Cytotoxicity, MTS assay; format: cell-based, mouse; details: for Cell viability: 24 h, MTS, N = 3
Method: Free peptides and silica particles loaded with them (AMP@Si) were compared for their cytotoxicity against mouse macrophages (Raw264.7 cells) and their hemolytic activity against RBCs. Free AMP or AMP@Si was added to each well of a 96-well plate in 2-fold serial dilutions to 50 μL with DMEM medium containing 10% FBS and 1% antibiotics. Raw264.7 macrophages at a concentration of 4 × 10^4 cells per 50 μL were added to the wells containing the peptide to give a final volume of 100 μL. Cell proliferation was confirmed by MTS assay (Promega, Madison, WI, USA) after 24 h or 5 days of incubation. The MTS tetrazolium compound was reduced by viable cells to generate a colored formazan product. The intensity of the color at 490 nm is proportional to the number of viable cells in the sample. To calculate cell viability, the absorbance of cells treated with the peptide was divided by the absorbance of cells that were not treated with the peptide. The resulting quotient was then expressed as a percentage. […] The supernatant (100 μL) was collected after centrifugation at 1000× g for 5 min, and the absorbance (A) was measured at 570 nm. The value of “zero hemolysis” was determined by the absorbance of PBS alone, and 100% hemolysis was determined by the absorbance of the supernatant obtained from 1% (v/v) Triton X-100-treated RBCs. The percentage of hemolysis was calculated as hemolysis (%) = (AAMP − APBS)/(ATriton − APBS) × 100.
Figure 7 The hemolytic activity and cytotoxicity of AMPs. […] (b) The cytotoxicity of AMP was measured 24 h after the addition of each indicated concentration of AMP to Raw264.7 cells grown overnight. Cell survival is expressed as a percentage of the negative control grown without AMP.
Figure S4. […] The cytotoxicity of AMP was measured 5 days after incubation of Raw 264.7 cells (4 x 10^5 cells/ mL) in the presence of each indicated concentration of AMP Cell survival was expressed as a percentage of the negative control grown without AMP. […]

P. aeruginosa = format: cell-based, Pseudomonas aeruginosa (wild type PK01); details: 18 h
Method: as §4, §5

E. coli = format: cell-based, Escherichia coli (wild type W2110); details: 18 h
Method: as §4, §5

[5] = test system: sheep red blood cells (RBCs); experiment: Hemolytic activity assay; format: cell-based; details: at 77.5 μM (free peptides: up to 77.5 μM); 37 °C, 1 h, A570, 100% = 1% Triton X-100; N = 3
Method: Free peptides and silica particles loaded with them (AMP@Si) were compared for their cytotoxicity against mouse macrophages (Raw264.7 cells) and their hemolytic activity against RBCs. Free AMP or AMP@Si was added to each well of a 96-well plate in 2-fold serial dilutions to 50 μL with DMEM medium containing 10% FBS and 1% antibiotics. Raw264.7 macrophages at a concentration of 4 × 10^4 cells per 50 μL were added to the wells containing the peptide to give a final volume of 100 μL. Cell proliferation was confirmed by MTS assay (Promega, Madison, WI, USA) after 24 h or 5 days of incubation. The MTS tetrazolium compound was reduced by viable cells to generate a colored formazan product. […] To calculate cell viability, the absorbance of cells treated with the peptide was divided by the absorbance of cells that were not treated with the peptide. The resulting quotient was then expressed as a percentage. […] The supernatant (100 μL) was collected after centrifugation at 1000× g for 5 min, and the absorbance (A) was measured at 570 nm. The value of “zero hemolysis” was determined by the absorbance of PBS alone, and 100% hemolysis was determined by the absorbance of the supernatant obtained from 1% (v/v) Triton X-100-treated RBCs. The percentage of hemolysis was calculated as hemolysis (%) = (AAMP − APBS)/(ATriton − APBS) × 100. […]

S. aureus [6] = test system: S. aureus; set-up: method as in PMID 33236626; details: cited from earlier work
[7] = free peptide, MHB, 2-fold dilution 0–320 µM, 37 °C, OD600, mean ± standard error of three replicate experiments

Q: What does the source list for “Ac-RKKRRQRRRGSSKRIVQRIKDFLR-NH2 [CPP-KR12]”?
A: Residual antibacterial activity after trypsin treatment [1]: approximately 15%; Residual antibacterial activity after trypsin treatment [2]: approximately 10%; Residual antibacterial activity after trypsin treatment [3]: approximately 15%; Minimum inhibitory concentration (MIC) (S. aureus [4]; [7]): 22.80 ± 8.48 µM; Cytotoxicity (Raw264.7 cells; 6 µM): not cytotoxic; Cell viability (Raw264.7 cells; 19.38 μM): 80%; Cell viability (Raw264.7 cells; 77.5 μM): 10%; Minimum inhibitory concentration (MIC) (P. aeruginosa; [7]): 6.12 ± 3.72 µM; Minimum inhibitory concentration (MIC) (E. coli; [7]): 12.09 ± 4.97 µM; entrapment efficiency (EE): 95%; Hemolysis [5]: less than 1%

Q: Which entrapment efficiency (EE) does the source give for `CC(=O)N[C@@H](CCCNC(=N)N)C(=O)N[C@@H](CCCCN)C(=O)N[C@@H](CCCCN)C(=O)N[C@@H](CCCNC(=N)N)C(=O)N[C@@H](CCCNC(=N)N)C(=O)N[C@@H](CCC(N)=O)C(=O)N[C@@H](CCCNC(=N)N)C(=O)N[C@@H](CCCNC(=N)N)C(=O)N[C@@H](CCCNC(=N)N)C(N)=O` here?
A: The entrapment efficiency (EE) was 95%.

Q: With “YGRKKRRQRRKRIVQRIKDFLR [TAT-KR-12, literature peptide developed for treatment of intracellular S. aureus infection]” as the compound, how does the “Antibacterial activity against S. aureus” value (S. aureus [6]) read?
A: Its value is “enhanced antibacterial activity”.

Q: Which results are given for “Ac-KRIVQRIKDFLR-NH2 [KR12, reference compound]”?
A: Minimum inhibitory concentration (MIC) (S. aureus [4]): >320 ^a µM; Minimum inhibitory concentration (MIC) (P. aeruginosa): 181.98 ± 68.20 µM; Minimum inhibitory concentration (MIC) (E. coli): 103.36 ± 25.82 µM; Hemolysis [5]: less than 1%
